Inhibition data for 2 compounds are collected here from ChEMBL document CHEMBL5653615 (J Biol Chem, 2013).

Test [1] deals with T1, Aurora kinase C (Homo sapiens) (UniProt Q9UQB9).
T1 sequence (whole entry): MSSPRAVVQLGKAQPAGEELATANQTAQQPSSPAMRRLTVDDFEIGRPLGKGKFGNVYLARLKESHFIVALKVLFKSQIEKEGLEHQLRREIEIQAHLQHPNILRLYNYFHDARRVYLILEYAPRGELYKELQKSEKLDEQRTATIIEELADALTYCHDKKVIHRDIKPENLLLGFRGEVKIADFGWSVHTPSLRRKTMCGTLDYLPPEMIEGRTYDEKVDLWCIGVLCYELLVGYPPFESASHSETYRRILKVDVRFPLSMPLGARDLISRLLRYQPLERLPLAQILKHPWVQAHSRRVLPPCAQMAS
Briefly: Inhibition of human Aurora C at 18.6 nM by HotSpot assay relative to control.

Test [2] deals with Calcium/calmodulin-dependent protein kinase kinase 1 (Homo sapiens) (UniProt Q8N5S9). Briefly: Inhibition of human CAMKK1 at 1.82 nM by HotSpot assay relative to control.
Test [3] concerns the target T2, Aurora kinase A (Homo sapiens) (UniProt O14965).
T2 sequence (whole entry): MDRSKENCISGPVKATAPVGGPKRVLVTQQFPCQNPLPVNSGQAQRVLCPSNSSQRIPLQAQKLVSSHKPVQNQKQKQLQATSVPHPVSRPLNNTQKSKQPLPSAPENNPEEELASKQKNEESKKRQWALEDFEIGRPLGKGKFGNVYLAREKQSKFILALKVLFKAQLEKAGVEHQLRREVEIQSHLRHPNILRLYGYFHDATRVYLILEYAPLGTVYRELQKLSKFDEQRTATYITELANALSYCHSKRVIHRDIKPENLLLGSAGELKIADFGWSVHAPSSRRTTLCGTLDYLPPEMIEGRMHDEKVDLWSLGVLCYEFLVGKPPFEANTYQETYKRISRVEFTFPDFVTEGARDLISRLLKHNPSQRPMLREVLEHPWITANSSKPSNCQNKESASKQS
Briefly: Inhibition of human Aurora A at 1.82 nM by HotSpot assay relative to control.

The target of test [4] is Serine/threonine-protein kinase WNK3 (Homo sapiens) (UniProt Q9BYP7). Briefly: Inhibition of human WNK3 at 1.82 nM by HotSpot assay relative to control.
Test [5] deals with T3, Mitogen-activated protein kinase kinase kinase 3 (Homo sapiens) (UniProt Q99759).
T3 sequence (whole entry): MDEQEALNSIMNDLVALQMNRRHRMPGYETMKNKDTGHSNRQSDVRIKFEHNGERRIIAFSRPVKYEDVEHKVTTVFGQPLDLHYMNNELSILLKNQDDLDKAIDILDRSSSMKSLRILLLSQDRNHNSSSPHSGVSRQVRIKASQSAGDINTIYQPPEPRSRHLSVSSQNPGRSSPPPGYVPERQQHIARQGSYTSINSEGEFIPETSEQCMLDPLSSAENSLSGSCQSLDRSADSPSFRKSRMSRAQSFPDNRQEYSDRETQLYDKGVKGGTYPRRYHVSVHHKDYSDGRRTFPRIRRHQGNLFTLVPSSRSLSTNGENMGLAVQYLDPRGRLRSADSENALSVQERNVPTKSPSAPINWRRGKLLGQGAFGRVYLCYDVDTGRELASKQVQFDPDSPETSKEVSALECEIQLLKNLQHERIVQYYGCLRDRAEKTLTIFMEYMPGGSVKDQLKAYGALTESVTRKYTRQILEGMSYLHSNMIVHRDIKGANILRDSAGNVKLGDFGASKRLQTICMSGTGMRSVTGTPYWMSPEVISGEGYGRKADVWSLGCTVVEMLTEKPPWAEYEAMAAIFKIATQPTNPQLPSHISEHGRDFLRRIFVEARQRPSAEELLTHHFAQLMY
As to the kind of experiment: Inhibition of human MEKK3 at 1.82 nM by HotSpot assay relative to control.

Test [6] addresses T4, Ephrin type-A receptor 8 (Homo sapiens) (UniProt P29322).
T4 sequence (whole entry): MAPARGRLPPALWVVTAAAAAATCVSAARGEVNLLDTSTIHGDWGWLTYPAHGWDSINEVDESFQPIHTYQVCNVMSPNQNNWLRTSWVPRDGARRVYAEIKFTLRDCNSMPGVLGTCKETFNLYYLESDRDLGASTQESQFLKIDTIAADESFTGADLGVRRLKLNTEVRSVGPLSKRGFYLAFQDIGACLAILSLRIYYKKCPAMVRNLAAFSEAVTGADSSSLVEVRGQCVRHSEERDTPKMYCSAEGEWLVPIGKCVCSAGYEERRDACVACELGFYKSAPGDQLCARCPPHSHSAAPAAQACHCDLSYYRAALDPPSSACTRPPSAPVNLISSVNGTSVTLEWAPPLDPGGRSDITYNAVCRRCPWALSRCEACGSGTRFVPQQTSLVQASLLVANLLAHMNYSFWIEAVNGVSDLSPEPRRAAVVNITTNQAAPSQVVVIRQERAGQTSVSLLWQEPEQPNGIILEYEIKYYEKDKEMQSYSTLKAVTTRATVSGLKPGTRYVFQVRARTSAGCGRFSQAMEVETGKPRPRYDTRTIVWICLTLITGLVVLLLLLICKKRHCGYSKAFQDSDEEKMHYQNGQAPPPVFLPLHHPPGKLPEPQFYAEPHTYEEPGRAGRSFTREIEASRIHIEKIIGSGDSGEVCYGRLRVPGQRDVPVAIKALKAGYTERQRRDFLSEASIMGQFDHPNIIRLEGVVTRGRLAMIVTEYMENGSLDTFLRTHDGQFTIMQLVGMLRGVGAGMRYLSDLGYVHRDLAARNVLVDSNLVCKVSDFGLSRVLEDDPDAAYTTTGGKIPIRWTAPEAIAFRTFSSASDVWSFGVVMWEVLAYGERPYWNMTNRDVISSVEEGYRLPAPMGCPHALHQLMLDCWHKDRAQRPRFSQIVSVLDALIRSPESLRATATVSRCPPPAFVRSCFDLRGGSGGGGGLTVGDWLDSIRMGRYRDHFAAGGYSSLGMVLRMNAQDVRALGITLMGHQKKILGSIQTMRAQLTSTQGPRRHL
As to the kind of experiment: Inhibition of human EPHA8 at 1.82 nM by HotSpot assay relative to control.

Chain of Calcium/calmodulin-dependent protein kinase kinase 1 (Homo sapiens) (Q8N5S9 whole entry, looked up): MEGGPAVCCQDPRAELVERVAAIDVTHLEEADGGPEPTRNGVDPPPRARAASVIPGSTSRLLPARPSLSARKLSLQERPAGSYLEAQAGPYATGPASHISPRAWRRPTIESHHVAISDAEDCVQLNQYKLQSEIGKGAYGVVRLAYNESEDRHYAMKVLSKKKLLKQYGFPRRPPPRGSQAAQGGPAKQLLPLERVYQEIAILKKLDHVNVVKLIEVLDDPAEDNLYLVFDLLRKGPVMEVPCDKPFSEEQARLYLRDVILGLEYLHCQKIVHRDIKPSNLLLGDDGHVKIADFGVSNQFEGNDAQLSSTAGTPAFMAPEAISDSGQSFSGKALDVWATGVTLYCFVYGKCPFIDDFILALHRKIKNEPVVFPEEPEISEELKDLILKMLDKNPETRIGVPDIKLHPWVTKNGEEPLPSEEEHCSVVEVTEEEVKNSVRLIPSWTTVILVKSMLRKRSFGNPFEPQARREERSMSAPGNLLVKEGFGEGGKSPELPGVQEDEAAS
Chain of Serine/threonine-protein kinase WNK3 (Homo sapiens) (Q9BYP7 whole entry): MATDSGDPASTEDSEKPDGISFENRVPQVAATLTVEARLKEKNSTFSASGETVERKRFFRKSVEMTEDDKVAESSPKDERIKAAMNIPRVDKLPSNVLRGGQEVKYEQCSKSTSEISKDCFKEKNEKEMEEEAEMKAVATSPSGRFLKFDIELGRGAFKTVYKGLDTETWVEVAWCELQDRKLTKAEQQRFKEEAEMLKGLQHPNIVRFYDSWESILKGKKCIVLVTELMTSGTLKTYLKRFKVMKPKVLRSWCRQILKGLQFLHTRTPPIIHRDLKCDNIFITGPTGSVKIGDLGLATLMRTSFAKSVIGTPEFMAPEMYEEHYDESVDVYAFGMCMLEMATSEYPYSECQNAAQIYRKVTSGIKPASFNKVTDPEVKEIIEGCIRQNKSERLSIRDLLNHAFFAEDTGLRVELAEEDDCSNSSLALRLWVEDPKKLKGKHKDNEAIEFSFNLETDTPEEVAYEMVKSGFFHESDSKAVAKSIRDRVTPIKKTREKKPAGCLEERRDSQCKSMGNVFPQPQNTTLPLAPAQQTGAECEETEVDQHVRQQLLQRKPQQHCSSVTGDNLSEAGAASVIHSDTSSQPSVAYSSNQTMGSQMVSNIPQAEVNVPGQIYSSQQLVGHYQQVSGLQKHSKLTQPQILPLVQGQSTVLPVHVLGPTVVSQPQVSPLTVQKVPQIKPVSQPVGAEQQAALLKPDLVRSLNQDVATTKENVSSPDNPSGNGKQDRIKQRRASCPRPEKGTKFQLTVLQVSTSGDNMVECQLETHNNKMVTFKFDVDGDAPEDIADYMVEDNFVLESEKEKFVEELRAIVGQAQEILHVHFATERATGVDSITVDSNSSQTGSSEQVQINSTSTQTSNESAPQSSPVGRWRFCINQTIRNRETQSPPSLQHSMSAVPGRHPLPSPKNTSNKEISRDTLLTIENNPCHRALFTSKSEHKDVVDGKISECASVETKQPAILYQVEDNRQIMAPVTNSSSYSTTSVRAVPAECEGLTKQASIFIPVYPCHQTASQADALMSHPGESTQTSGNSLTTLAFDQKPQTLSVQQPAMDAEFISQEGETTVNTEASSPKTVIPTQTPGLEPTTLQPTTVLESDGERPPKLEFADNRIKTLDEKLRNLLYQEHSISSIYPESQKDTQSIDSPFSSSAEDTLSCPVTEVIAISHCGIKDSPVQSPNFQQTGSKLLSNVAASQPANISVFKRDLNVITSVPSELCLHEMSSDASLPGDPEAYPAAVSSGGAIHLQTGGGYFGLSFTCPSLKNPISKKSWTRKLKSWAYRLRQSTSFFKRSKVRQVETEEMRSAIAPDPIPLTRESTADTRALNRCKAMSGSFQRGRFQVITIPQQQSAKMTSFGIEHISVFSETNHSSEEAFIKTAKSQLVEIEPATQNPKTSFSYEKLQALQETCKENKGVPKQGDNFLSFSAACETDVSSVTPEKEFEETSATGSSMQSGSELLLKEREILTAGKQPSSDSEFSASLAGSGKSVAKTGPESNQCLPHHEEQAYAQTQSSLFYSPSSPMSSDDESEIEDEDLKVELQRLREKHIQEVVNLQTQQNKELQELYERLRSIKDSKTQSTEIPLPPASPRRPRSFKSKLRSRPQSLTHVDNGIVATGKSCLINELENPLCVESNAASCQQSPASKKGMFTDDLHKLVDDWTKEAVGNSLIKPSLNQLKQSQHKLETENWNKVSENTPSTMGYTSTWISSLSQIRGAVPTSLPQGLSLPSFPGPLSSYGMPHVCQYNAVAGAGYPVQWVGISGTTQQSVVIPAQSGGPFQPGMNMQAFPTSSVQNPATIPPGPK

In the case of `C[C@]1(O)C[C@@H](c2nc(-c3ccc4ccc(-c5ccccc5)nc4c3)c3c(N)nccn32)C1`, the inhibition in test [1] is -7.85%.

On to `C[C@@]1(C(=O)Nc2ccc(F)nc2)CCCN1c1nc(Nc2cc(C3CC3)n[nH]2)c2cccn2n1`, for which the inhibition in test [2] is -5.91%; in test [3], 30%; in test [4] it was 3.37%; in test [5] it was -2.8%; in test [6] it was -4.62%.
